Source: publication PMC6382874, “Succinylation-dependent mitochondrial translocation of PKM2 promotes cell survival in response to nutritional stress” (Cell Death & Disease, 2019)

What was measured:
[1] = biological target: T1, PKM1 (Homo sapiens, UniProt P14618); experiment: fluorescent PK-LDH coupled assay, PKM1; assay type: biochemical; conditions: recombinant enzyme, PK-LDH coupled assay; read-out: IC50 (PKM1)
T1 construct: His-tag (N); made in house; host or cells: Escherichia coli BL21
Description: Human cDNA for PKM2, PKM1, and VDAC3 were separately cloned into a pET28a (+) and pGEX-4T-1 vector with an N-terminal His-tag and N-terminal GST-tag and purified from the Escherichia coli strain BL21 (Invitrogen) using Ni–agarose beads and GST agarose beads (Qiagen) as described previously. PKL was purchased from Sino Biological Inc. in China.
Pyruvate kinase activity was measured with a fluorescent pyruvate kinase–lactate dehydrogenase coupled assay as described previously. All compounds were tested in a kinetic mode by coupling the generation of pyruvate by pyruvate kinase to the depletion of NADH through lactate dehydrogenase. For PKM2, 40 μL of buffer (50 mM Tris–HCl, pH 7.5, 10 mM KCl, 5 mM MgCl2), 1 μL of compound and 5 μL of enzyme solution were dispensed into Corning black solid 96-well plates and incubated for 15 min. Totally, 55 μL of substrate mix (final concentration, 0.5 mM PEP, 4.0 mM ADP, 0.12 mM NADH, 0.25 mM FBP, and 1 unit LDH) were then added, and the plates were placed in a FlexStation3 (Molecular Devices), followed by determination of NADH fluorescence at 30 s exposure intervals for 3–6 min. Data were collected on a FlexStation3.

[2] = system: VDAC3; experiment: VDAC3 protein level (western blot) in HCT116 cells; assay type: cell-based, human; conditions: 10 or 20 µM, 8 h
Description: HCT116 cell lysates were subject to immunoprecipitation with control IgG and anti-VDAC3 antibodies. d, e In vitro binding assay of purified His-tagged-PKM2 and GST-tagged-VDAC3. f K433E enhanced the interaction of PKM2 and VDAC3. Stagged-WT PKM2, a succinylation mimic K433E and a succinylation null mutant K433R and flag-VDAC3 were co-transfected into HCT116 cells for Stag bead pull down that specially pulls down Stagged proteins. g Glucose starvation enhanced the interaction of PKM2 and VDAC3. […]
Fig. 6 Compound 8 blocks PKM2 mitochondrial translocation under nutritional stress and inhibits tumor growth in vivo. a Compound 8 blocks glucose starvation induced PKM2 mitochondrial translocation. […] HCT116 cells were transfected with HA-tagged PKM2, cells were harvested and subjected to stag pull down after 8 h 20 µM compound 8 treatment. c Compound 8 induces VDAC3 for degradation. cells were harvested and evaluated VDAC3 protein levels after 8 h 10 or 20 µM compound 8 treatment. d, e Compound 8 caused a decrease in the rate of NADH oxidation. […] NAD/NADH ratios in HCT116 cell lysates were evaluated by LC–MS. f Compound 8 inhibited ATP production in HCT116 cells. g The tumor volume (n = 7) of HCT116 xenografts from mice with intraperitoneal injection of compound 8 and vehicle control […]

T1 sequence (P14618 1-531 isoform P14618-2): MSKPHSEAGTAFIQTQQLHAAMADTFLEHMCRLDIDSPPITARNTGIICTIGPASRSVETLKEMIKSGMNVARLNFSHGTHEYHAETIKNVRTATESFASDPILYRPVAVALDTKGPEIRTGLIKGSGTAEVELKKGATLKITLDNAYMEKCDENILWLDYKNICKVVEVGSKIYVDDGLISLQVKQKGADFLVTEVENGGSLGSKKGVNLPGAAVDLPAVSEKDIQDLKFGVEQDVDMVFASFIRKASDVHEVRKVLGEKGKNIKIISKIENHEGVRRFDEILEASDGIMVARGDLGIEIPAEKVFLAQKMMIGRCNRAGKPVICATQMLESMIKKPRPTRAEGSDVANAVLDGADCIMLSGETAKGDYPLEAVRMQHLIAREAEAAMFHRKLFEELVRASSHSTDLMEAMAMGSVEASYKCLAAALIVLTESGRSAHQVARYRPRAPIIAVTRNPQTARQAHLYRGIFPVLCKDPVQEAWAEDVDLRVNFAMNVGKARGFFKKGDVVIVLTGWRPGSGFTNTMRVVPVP

CCCN(CCC)P(N)(=O)OCC1=CC(=O)c2ccccc2C1=O (centres unmarked) [Compound 8]
IC50 [1]: 10.5 ± 1.52 µM | VDAC3 protein level [2]: caused VDAC3 degradation
